Key:
[1] = tested on: chronically injured hearts; assay: Angiotensin II (AT II)-induced cardiac hypertrophy and fibrosis; assay type: in vivo, mice; settings: heart, 10 mg/kg subcutaneously per day starting one day prior
Procedure: Eight to twelve weeks old C57BL/6 mice were anesthetized with isoflurane inhalation (2-3%), analgesia was performed by subcutaneous injection of 0.1 mg/kg body weight Buprenorphine per day. Osmotic minipumps (Alzet, Cupertino, USA) were loaded with AT II to continuously deliver 1.44 μg/kg body weight per day and implanted subcutaneously (123). Mice were sacrificed 14 days after implantation for further analyses. Mice were injected subcutaneously with 10 mg/kg body weight per day GPI-1046 (Santa Cruz Biotechnology, Dallas, USA) in DMSO once daily starting one day prior of surgery, control mice received equivalent volume of vehicle DMSO. […] For morphometric analysis of interstitial fibrosis, fibrotic areas were assessed by using cellSens (Olympus, Tokyo, Japan) software. Ten visual fields were selected randomly for each MTS stained section at 200× magnification and the relative interstitial fibrotic area was evaluated by using a 10 mm2 graticule. Tubular damage was analysed after PAS stain and graded according to a semi-quantitative score of 0 to 3 (0: normal, 1: mild, 2: moderate, 3: severe) at 400× magnification in a total number of 100 tubules per section (158). […] Cardiomyocyte diameters were determined from 100 random fibers in PAS-stained heart sections using cellSens (Olympus, Tokyo, Japan) software.

ARNT proximal promoter = assay: ChIP PCR after Yy1 pull-down; assay type: cell-based, mouse; settings: cultured TECs, FK506 added to culture media
Procedure: (§1) DNA and protein interaction was performed with the OneDay ChIP Kit (Diagenode, Seraing, Belgium) according to the manufacturer's instructions. 2×10^7 MCT cells have been used for each ChIP reaction. Cell lysates were sonicated using an ultrasonic processor S-4000 (Misonix, Farmingdale, USA). Immunoprecipitation was performed with a ChIP grade antibody against Yy1 (ab12132, Abcam Biochemicals, Cambridge, UK) and Arnt (3718, Cell Signaling, Danvers, USA). Enriched DNA was analyzed by qRT-PCR with EpiTect ChIP qPCR primers for genomic Arnt (Qiagen, Hilden, Germany), oligonucleotide sequences for genomic Alk3 are listed in Table 10.

murine TECs = assay: Murine TEC cultures (MCT): mRNA expression (qRT-PCR), pSmad1/5/8 immunostaining, proliferation; assay type: cell-based, mouse
Procedure: HK-2 (ATTC, Manassas, USA) are immortalized proximal tubule epithelial cells derived from normal adult human kidney. The murine proximal tubular epithelial cell line MCT was generated from the renal cortex of SJL mice (75). All cells were routinely tested negative for the presence of mycoplasma contamination. None of the cell lines used in this manuscript is listed in the ICLAC and NCBI Biosample database of misidentified cell lines. Cells were cultured in Dulbecco's modified Eagle's (DMEM, Gibco, Carlsbad, USA) medium supplemented with 100 µg/mL penicillin, 100 µg/mL streptomycin and 10% heat-inactivated fetal bovine serum (FBS, Sigma, St. Louis, USA) at 37° C. in 5% CO2. For RNA extractions, cells were seeded in 6 well culture plates at 10^5 cells per well in antibiotic free standard growth medium. […] Cells were harvested for further analysis 6 hours after incubation. To examine de novo protein syntheses, cells were again plated in 6 well culture plates as initially described and then pre-treated with the translation blocker Cycloheximide (CHX, 10 μg/mL, Sigma, St. Louis, USA). After one hour of incubation, 200 pM FK506 was applied for additional 6 hours. One night before transfection, MCT cells were seeded in 6 well culture plates at a concentration of 1.5-2×10^5 per well in antibiotic-free DMEM (Gibco, Carlsbad, USA) supplemented with 10% heat-inactivated fetal bovine serum (FBS, Sigma, St. Louis, USA). For knockdown experiments, 60 pmol siRNA (Santa Cruz Biotechnology, Dallas, USA) or scrambled siRNA (scrRNA, Santa Cruz Biotechnology, Santa Cruz, USA) was transfected, for over-expression experiments, 2 μg plasmid DNA was transfected using Lipofectamine 2000 reagent (Invitrogen, Carlsbad, USA). After 4 hours of incubation, transfection medium was replaced by antibiotic-free medium and cells recovered overnight. For stimulation experiments, cells were stimulated the day after with […] FK506 (Abcam Biochemicals, Cambridge, UK) dissolved in DMSO and harvested after 6 hours of incubation for RNA and protein analysis. For SYBR-based real-time PCR, cDNA synthesis was performed by using DNase I digestion (Invitrogen, Carlsbad, USA) and SuperScript II Reverse Transcriptase (Invitrogen, Carlsbad, USA) according to the manufacturer's protocol. 1 μL of reverse-transcribed cDNA was added to the reaction mixture containing the primer pair (200 nmol/L each) and diluted 2× Fast SYBR Green Master Mix (Applied Biosystems, Carlsbad, USA) in a final volume of 20 μL for each PCR reaction. The real-time PCR reactions were performed in a 96-well reaction plate using the StepOne Plus Real-Time System (Applied Biosystems, Carlsbad, USA) and were done in triplicates. An initiation step at 95° C. for 20 seconds was followed by 40 cycles at 95° C. for 3 to seconds and 60° C. for 30 seconds, with one cycle of dissociation at 95° C. for 15 seconds, 60° C. for 60 seconds, and 95° C. for 15 seconds. The intercalation of SYBR Green dye and its fluorescent signal is directly proportional to the amount of amplified DNA and was transformed into the cycle threshold (Ct). For normalization, the Ct values of the housekeeping genes Gapdh and Actb were subtracted from the Ct values of the gene of interest to generate the dCt values. The relative expression levels were calculated using the equation 2^−ddCt.

[2] = tested on: proximal ALK3 promoter (CACGTG E-box motif); assay: ALK3 ChIP-PCR after Arnt pull-down; assay type: cell-based, mouse; settings: TECs upon exposure to FK506
Procedure: as §1

CCC(C)(C)C(=O)C(=O)N1CCC[C@H]1C(=O)OCCCc1cccnc1 [GPI-1046, 3-(3-pyridyl)-1-propyl-(2S)-1-(3,3-dimethyl-1,2-dioxopentyl)-2-pyrrolidinedine carboxylate]
ALK3-dependent canonical BMP signaling responses [1]: equally effective
protection from fibrogenesis [1]: equally effective

C=CC[C@@H]1/C=C(\C)C[C@H](C)C[C@H](OC)[C@H]2O[C@@](O)(C(=O)C(=O)N3CCCC[C@H]3C(=O)O[C@H](/C(C)=C/[C@@H]3CC[C@@H](O)[C@H](OC)C3)[C@H](C)[C@@H](O)CC1=O)[C@H](C)C[C@@H]2OC [FK506, tacrolimus]
YY1 binding to the ARNT proximal promoter (ARNT proximal promoter): reduced
induction of ALK3 transcription (murine TECs; TECs depleted for HIF1α (Hif1akd) or AHR (Ahrkd)): preserved effectiveness
mRNA expression levels of AR, ARNT, CEBPB, CREB1, GATA3, MAX (qRT-PCR) (murine TECs; TECs upon exposure to FK506): increased
ALK3 transcription or nuclear pSmad1/5/8 accumulation (murine TECs; TECs with ARNT depleted (Arntkd)): failed to induce
ALK3 transcription and canonical BMP signaling responses (nuclear pSmad1/5/8) (murine TECs; TECs with Cycloheximide (CHX, 10 μg/mL)): failed to induce
ARNT mRNA and protein levels (murine TECs; TECs with FKBP12 or YY1 depletion, FK506 supplemented): did not additionally induce
ALK3 transcription and BMP signaling responses (murine TECs; TECs with YY1 depleted (Yy1kd), FK506 supplemented): did not additionally induce
ARNT transcription (murine TECs; cultured TECs, FK506 added to culture media): transcriptional ARNT induction
pSmad1/5/8 (murine TECs; murine TECs): accumulation of pSmad1/5/8
ARNT binding to CACGTG motif within the proximal ALK3 promoter [2]: significantly increased

Source: US12440479B2, “Prevention or treatment of chronic organ injury” (GEORG-AUGUST-UNIVERSITAET GOETTINGEN, STIFTUNG …, priority 2018, dated 2025)
